# Results reported in US9914731B2, “Pyrazolo[1,5-a]pyridine derivatives and methods of their use” (Ignyta, Inc., priority 2013, dated 2018).
# Legend:
# [1] = molecular target: recombinant human baculovirus-expressed AXL (Homo sapiens (Human), UniProt P30530); assay: AXL kinase assay (HTRF KinEASE); type: biochemical; settings: average of two or more determinations
# [2] = molecular target: recombinant human baculovirus-expressed cMET (Homo sapiens (Human), UniProt P08581); assay: c-MET kinase assay (HTRF KinEASE); type: biochemical; settings: average of two or more determinations; read-out: c-MET IC50
IC50 [1] [nM],IC50 [2] [nM],Structure (SMILES)
< 10,< 10,"CC(C)n1cc(C(=O)Nc2ccc(Oc3cc(NC(=O)N(C)C)cn4nccc34)c(F)c2)c(=O)n(-c2ccc(F)cc2)c1=O [Example 147, 3-(4-Fluoro-phenyl)-1-isopropyl-2,4-dioxo-1,2,3,4-tetrahydro-pyrimidine-5-carboxylic acid{4-[6-(3,3-dimethyl-ureido)-pyrazolo[1,5-a]pyridin-4-yloxy]-3-fluoro-phenyl}-amide]"
< 10,10 to 100,"CCn1cc(C(=O)Nc2ccc(Oc3cc(NC(=O)OC)cn4nccc34)c(F)c2)c(=O)n(-c2ccc(F)cc2)c1=O [Example 148, [4-(4-{[1-Ethyl-3-(4-fluoro-phenyl)-2,4-dioxo-1,2,3,4-tetrahydro-pyrimidine-5-carbonyl]-amino}-2-fluoro-phenoxy)-pyrazolo[1,5-a]pyridin-6-yl]-carbamic acid methyl ester]"
< 10,10 to 100,"COC(=O)Nc1cc(Oc2ccc(NC(=O)c3cn(C(C)C)c(=O)n(-c4ccc(F)cc4)c3=O)cc2F)c2ccnn2c1 [Example 149, [4-(2-Fluoro-4-{[3-(4-fluoro-phenyl)-1-isopropyl-2,4-dioxo-1,2,3,4-tetrahydro-pyrimidine-5-carbonyl]-amino}-phenoxy)-pyrazolo[1,5-a]pyridin-6-yl]-carbamic acid methyl ester]"
